We go through five molecules from article PMC5653355, “Identification of two immortalized cell lines, ECV304 and bEnd3, for in vitro permeability studies of blood-brain barrier” (PLoS ONE, 2017).

Data set [1] is described as follows: Permeability (transport study) across ECV304 monoculture model. The settings on record: human.
Procedure: (§2) For the generation of mono-culture models, ECV304 or bEnd3 cells were seeded on the upper surface of the membrane in Polyester Transwell inserts (0.4 μM pore size, 6.5 mm diameter, 24 well, Costar, Kennebunk, ME, USA) at a density of 5 × 10^4 and 8 × 10^4/cm^2, respectively. […] The culture medium (0.25 ml in the apical compartment and 1 ml in the basolateral compartment to avoid hydrostatic pressure) was replenished every day.
(§3) On day 5~7 after seeding cells, the TEER across cell layers was measured before initiating the transport study by replacing the medium in the apical compartment with tested compounds dissolved in HBSS. […] At indicated time points of 15, 30, 45 and 60 min, the inserts were transferred into new wells containing fresh HBSS to maintain sink conditions. […] Other compounds were analyzed by liquid chromatography tandem mass spectrometer (LC-MS/MS).
(§4) The cleared volume was determined by dividing the compound amount in basolateral compartment by the compound concentration in apical compartment. The slope of the cumulative clearance versus time was calculated by linear regression analysis and denoted as permeability coefficient (PEall) × surface area of the membrane insert (S, 0.33 cm^2). The PEblank of blank inserts was included to calculate the PEcell for cell layers themselves using the following equation: 1/PEcellS = 1/PEallS—1/PEblankS.
Data set [2] is described as follows: Permeability (transport study) across bEnd3 monoculture model. The settings on record: mouse.
Procedure: as §2, §3, §4
For data set [3], the system named is ECV304 cell layers. Kind of data set: Permeability (transport study) across ECV304 monoculture model.
Procedure: as §2, §3, §4
Another data set relates to bEnd3 cell layers. Nature of the data set: Permeability (transport study) across bEnd3 monoculture model.
Data set [4] concerns bEnd3 co-cultured with rat glioma C6 cells. Kind of data set: Permeability to Lucifer yellow in bEnd3 co-culture model with C6 cells. To be noted: Lucifer yellow 50 μM. The format is in vitro ADME, mouse. As to the method: (§1) For the generation of mono-culture models, ECV304 or bEnd3 cells were seeded on the upper surface of the membrane in Polyester Transwell inserts ([…] pore size, 6.5 mm diameter, 24 well, Costar, Kennebunk, ME, USA) at a density of 5 × 10^4 and 8 × 10^4/cm^2, respectively. For the generation of co-culture models, C6 cells were seeded on the lower surface of the membrane at a density of 5 × 10^4/cm^2 and incubated for 2 h to allow cell attachment before the seeding of ECV304 or bEnd3 cells.

Data set [5] relates to ECV304 cell layers. The settings on record: cited from earlier work.
Data set [6] deals with ECV304 co-cultured with rat glioma C6 cells. Kind of data set: Permeability to Lucifer yellow in ECV304 co-culture model with C6 cells. The format is in vitro ADME, human. The settings on record: Lucifer yellow 50 μM. As to the method: as §1

Procedure for bEnd3 cell layers: as §2, §3, §4

The Papp is a coefficient for how fast a substance crosses the barrier. The low end stands for slow passage, the high end for fast passage. For the molecule `C[C@H]1O[C@@H](O[C@H]2[C@@H](O)C[C@H](O[C@H]3[C@@H](O)C[C@H](O[C@H]4CC[C@@]5(C)[C@H](CC[C@@H]6[C@@H]5C[C@@H](O)[C@]5(C)[C@@H](C7=CC(=O)OC7)CC[C@]65O)C4)O[C@@H]3C)O[C@@H]2C)C[C@H](O)[C@@H]1O` [Digoxin, digoxin], the Papp at 60 min in data set [1] stood at 3.29 ± 0.16 ×10⁻⁶ cm/s; in data set [2], 6.24 ± 0.27 ×10⁻⁶ cm/s.

On to `CC(C)NCC(O)COc1cccc2ccccc12` (stereo not drawn) [Propranolol, propranolol], for which the “permeability ratio of transcellular marker propranolol to paracellular marker Lucifer yellow” value was 2.5 with ECV304 cell layers [3] (ECV304 cells, monoculture) and 1.2 with bEnd3 cell layers (bEnd3 cells, monoculture). Also, the results for the Papp at 60 min in data set [1] and in data set [2] were 28.4 ± 1.25 ×10⁻⁶ cm/s and 29.7 ± 1.44 ×10⁻⁶ cm/s, respectively.

Take `C=C[C@H]1C[N@@]2CC[C@H]1C[C@@H]2[C@@H](O)c1ccnc2ccc(OC)cc12` [Quinidine, quinidine]: the Papp at 60 min in data set [1] was determined as 24.5 ± 1.61 ×10⁻⁶ cm/s; in data set [2] it was 26.8 ± 0.68 ×10⁻⁶ cm/s.

Take `COC(=O)c1ccccc1-c1c2ccc(=N)cc-2oc2cc(N)ccc12` [R123, Rhodamine 123]: the figures for the Papp at 60 min in data set [1] and in data set [2] were 12.4 ± 0.91 ×10⁻⁶ cm/s and 22.3 ± 2.8 ×10⁻⁶ cm/s, respectively.

Lucifer yellow: the “increase of permeability to Lucifer yellow, co-culture with C6 cells versus monoculture” value in data set [4] amounted to 2 fold; in data set [6], 2.2 fold. For the same molecule, the “permeability of Lucifer yellow in ECV304 monolayer, published before” value with ECV304 cell layers [5] is 10.4 ×10⁻⁶ cm/s. For the same molecule, the “permeability to Lucifer yellow” value in the data set on ECV304 cell layers [3] (ECV304 monoculture model, Lucifer yellow 50 μM, day 5~7 after seeding, mean ± SD, n = 3) is given as 11.17 ± 0.87 × 10^−6 cm/s; in the data set on bEnd3 cell layers (bEnd3 monoculture model, Lucifer yellow 50 μM, day 5~7 after seeding, mean ± SD, n = 3), 23.68 ± 1.71 × 10^−6 cm/s.
